Test results: ChEMBL document CHEMBL5244275, “Geminal Diheteroatomic Motifs: Some Applications of Acetals, Ketals, and Their Sulfur and Nitrogen Homologues in Medicinal Chemistry and Drug Design” (J Med Chem, 2021)
≈ marks a conversion by molar mass, not a printed value. Numbered stars: 1 amine (or outer) side, 2 acyl side, 3 side chain; on linkers, the order of the positions; unused ones are H or OH. Bridge positions count the residues as written; N and C are the ends. Square brackets hold non-standard residues; d marks the D form. Peptide text beside a SMILES is read from it. * marks the point of attachment. Orn(4R-OH,5R-OH) = O=C([C@H](C[C@@H](O)[C@@H](O)N[*:3])N[*:1])[*:2]; Tetradecanoyl(10R,12S-Me2) = CC[C@H](C)C[C@H](C)CCCCCCCCC(=O)*; hTyr(3S-OH,4S-OH) = N[C@H](C(=O)O)[C@H](O)[C@@H](O)c1ccc(O)cc1; Gln(3R-OH) = NC(=O)C[C@@H](O)[C@H](N)C(=O)O; Pro(3S-OH) = O=C(O)[C@H]1NCC[C@@H]1O; Hyp = O=C(O)[C@@H]1C[C@@H](O)CN1

How the values were obtained:
[1] = Oral bioavailability in rat; format: ADME, organism-based; details: in vivo
[2] = Aqueous solubility of compound; format: physicochemical; details: aqueous (not further specified)
[3] = Stability of the compound in 20% aqueous dioxane solution at 30 degreeC assessed as compound hydrolysis by measuring rate constant; format: physicochemical; details: buffer
[4] = target: Human immunodeficiency virus type 1 protease (Human immunodeficiency virus 1, UniProt Q72874); experiment: Inhibition of HIV-1 protease
[5] = Stability of the compound at pH 1 assessed as half-life; format: physicochemical; details: buffer
[6] = tested on: Pasteurella multocida; experiment: Antibacterial activity against Pasteurella multocida 59A0067 assessed as inhibition of bacterial growth by microdilution method; format: functional
[7] = tested on: Escherichia coli; experiment: Antibacterial activity against Escherichia coli 51A0150 assessed as inhibition of bacterial growth by microdilution method; format: functional
[8] = tested on: Staphylococcus aureus; experiment: Antibacterial activity against Staphylococcus aureus 01A0785 assessed as inhibition of bacterial growth by microdilution method; format: functional
[9] = Cmax in rat plasma at 20 mg/kg, po; format: ADME, organism-based; design: dose 20 mg/kg, route po
[10] = Inhibition of Leukotriene B4 production in human blood Polymorphonuclear neutrophil cells; format: functional, tissue-based
[11] = Oral bioavailability in human; format: ADME, organism-based; details: in vivo
[12] = target: T1, Neutrophil elastase (Homo sapiens) (UniProt P08246); experiment: Time-dependent inhibition of human leukocyte elastase assessed as observed binding constant
T1 sequence (whole entry): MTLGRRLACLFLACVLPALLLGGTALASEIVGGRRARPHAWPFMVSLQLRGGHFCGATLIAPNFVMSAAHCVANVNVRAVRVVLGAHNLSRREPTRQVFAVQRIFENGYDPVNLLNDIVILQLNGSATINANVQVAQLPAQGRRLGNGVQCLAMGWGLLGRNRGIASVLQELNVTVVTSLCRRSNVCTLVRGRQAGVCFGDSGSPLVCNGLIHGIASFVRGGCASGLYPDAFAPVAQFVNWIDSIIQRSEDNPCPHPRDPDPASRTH

[13] = Stability of the compound at pH 8 assessed as compound hydrolysis by measuring half-life; format: physicochemical; details: buffer
[14] = tested on: Hepatitis C virus; experiment: Antiviral activity against Hepatitis C virus genotype 1a harboring NS5A Y93H mutant; format: functional, organism-based, Hepacivirus hominis
[15] = tested on: Human immunodeficiency virus 1; experiment: microbe, parasite or virus in culture; details: Human immunodeficiency virus 1, LAV
[16] = Aqueous stability of the compound assessed as acid-catalyzed decomposition by measuring rate constant; format: physicochemical; details: buffer
[17] = tested on: Escherichia coli; experiment: Inhibition of Escherichia coli beta-lactamase at 1 uM relative to control
[18] = Stability of the compound assessed as acid hydrolysis by measuring half-life; format: physicochemical
[19] = Dissociation constant, pKa of the compound; format: physicochemical
[20] = Inhibition of Calcium channel (unknown origin); design: species or system Homo sapiens
[21] = tested on: Plasmodium falciparum; experiment: Antiplasmodial activity against Plasmodium falciparum W2 assessed as inhibition of parasite growth; format: functional, organism-based
[22] = Stability of the compound in 0.01 N HCL at pH 2.0 assessed as half-life; format: physicochemical
[23] = tested on: Plasmodium falciparum; experiment: Antiplasmodial activity against Plasmodium falciparum FcM29 assessed as inhibition of plasmodial growth; format: functional, organism-based
[24] = tested on: Candida albicans; experiment: Antifungal activity against Candida albicans GS; format: functional, organism-based
[25] = tested on: Candida albicans; experiment: Fungicidal activity against Candida albicans; format: functional
[26] = tested on: Mus musculus; experiment: Antiinflammatory activity in LPS-induced Balb/c mouse model assessed as reduction in TNF-alpha release administered orally for 30 mins followed by LPS-stimulation and measured after 90 mins by ELISA analysis; format: functional; details: 2 h, route po, time 120 min

SMILES: O=C1CCC2(CC1)OOC1(O2)C2CC3CC(C2)CC1C3 (stereo not given)
- bioavailability [1]: < 1%
- solubility [2]: < 0.001 mg/mL

SMILES: c1ccc(C2(c3ccccc3)OCCO2)cc1
- K [3]: 3.6 10^-2/M/s

SMILES: CC(C)CN(C[C@@H](O)[C@H](Cc1ccccc1)NC(=O)O[C@H]1C2CO[C@H]3OCC1C3C2)S(=O)(=O)c1ccc2oc(NC3CC3)nc2c1 (stereo not given in full)
- IC50 [4]: 0.26 nM

SMILES: Cc1cn([C@H]2C=C[C@@H](CO)O2)c(=O)[nH]c1=O [STAVUDINE]
- half-life [5]: 26 h

SMILES: CC[C@@H]1C[C@H](O)[C@@H](C)NC[C@H](C)C[C@@]2(C)OC3(CCN(Cc4ccccc4)CC3)O[C@@H]([C@H](C)[C@H]2O[C@@H]2O[C@H](C)C[C@H](N(C)C)[C@H]2O)[C@@H](C)C(=O)O1
- MIC [6]: 0.03 µg/mL (≈ 0.0418 µM)
- MIC [7]: 0.2 µg/mL (≈ 0.279 µM)
- MIC [8]: 0.6 µg/mL (≈ 0.836 µM)

SMILES: N#Cc1cc(-c2ccoc2)c2ccc(OCc3cccc(C4(O)CC5COC(C4)O5)c3)cc2c1 (stereo not given)
- bioavailability [1]: 10%
- Cmax [9]: 2500 nM
- IC50 [10]: 3 nM

SMILES: CC(C)[C@H](N)C(=O)OCCOCn1cnc2c(=O)[nH]c(N)nc21 [VALACYCLOVIR]
- bioavailability [11]: 54%
- solubility [2]: 174 mg/mL (≈ 536000 µM)

SMILES: CC[C@@H]1C(=O)N(C(C)=O)[C@H]1OC(C)=O (racemic)
- K [12]: 4 10^3/M/s
- half-life [13]: 2.4 h

SMILES: COC(=O)N[C@H](C(=O)N1CCC[C@H]1c1ncc(-c2ccc3c(c2)CCn2c-3cc3cc(-c4cnc([C@@H]5CCCN5C(=O)[C@@H](NC(=O)OC)C(C)C)[nH]4)ccc32)[nH]1)C(C)C
- EC50 [14]: 170 nM

SMILES: CC[C@@H]1C[C@H](O)[C@@H](C)NC[C@H](C)C[C@@]2(C)OC3(CCN(C(=O)c4ccco4)CC3)O[C@@H]([C@H](C)[C@H]2O[C@@H]2O[C@H](C)C[C@H](N(C)C)[C@H]2O)[C@@H](C)C(=O)O1
- MIC [6]: 0.05 µg/mL (≈ 0.0693 µM)
- MIC [7]: 0.78 µg/mL (≈ 1.08 µM)
- MIC [8]: 0.78 µg/mL (≈ 1.08 µM)

SMILES: Nc1nc(=O)n([C@@H]2CS[C@H](CO)O2)cc1F [EMTRICITABINE]
- bioavailability [11]: 60%
- EC50 [15]: 8 nM

SMILES: Clc1ccc(C2OCCS2)cc1 (stereo not given)
- K [16]: 0.00978 min⁻¹

SMILES: COc1ccc(S(=O)(=O)N(CC(C)C)C[C@@H](O)[C@H](Cc2ccccc2)NC(=O)O[C@H]2CO[C@H]3O[C@@H]4OCC[C@@H]4[C@H]32)cc1
- IC50 [4]: 1.8 nM

SMILES: CC[C@@H]1C(=O)N(C(C)=O)[C@H]1Oc1ccc(C(=O)O)cc1
- K [12]: 6.7 10^3/M/s
- half-life [13]: 8.6 h

SMILES: O=c1ccn([C@H]2C=C[C@@H](CO)O2)c(=O)[nH]1
- half-life [5]: 15 h

SMILES: CC1(C)[C@H](C(=O)O)N2C(=O)/C(=C/c3ccccc3)[C@H]2S1(=O)=O
- inhibition [17]: 28%

SMILES: Nc1ncnc2c1ncn2[C@@H]1O[C@H](CO)C[C@@H]1F [LODENOSINE]
- half-life [18]: > 1 min

SMILES: FC(F)(F)c1cc(CO[C@H]2CCCN[C@H]2c2ccccc2)cc(C(F)(F)F)c1
- pKa [19]: 8.3
- IC50 [20]: 780 nM

SMILES: C[C@@H]1CC[C@H]2[C@@H](C)C(=O)O[C@@H]3O[C@@]4(C)CC[C@@H]1[C@]32OO4 [ARTEMISININ]
- IC50 [21]: 2.8 nM
- half-life [22]: 24 h
- IC50 [23]: 7 nM

SMILES: CC[C@H](C)C[C@H](C)CCCCCCCCC(=O)N[C@H]1C[C@@H](O)[C@@H](O)NC(=O)[C@@H]2[C@@H](O)CCN2C(=O)[C@H]([C@H](O)CC(N)=O)NC(=O)[C@H]([C@H](O)[C@@H](O)c2ccc(O)cc2)NC(=O)[C@@H]2C[C@@H](O)CN2C(=O)[C@H]([C@@H](C)O)NC1=O ({Tetradecanoyl(10R,12S-Me2)}-[Orn(4R-OH,5R-OH)]T[Hyp][hTyr(3S-OH,4S-OH)][Gln(3R-OH)][Pro(3S-OH)]; lactam 1-C)
- IC50 [24]: 70 nM
- MFC [25]: 0.25 µg/mL (≈ 0.235 µM)

SMILES: C[S+]([O-])c1ccc(-c2nc(-c3ccncc3)c(-c3ccc(F)cc3)[nH]2)cc1 (stereo not given) [SB-203580]
- bioavailability [1]: 10%
- ED50 [26]: 10 mg/kg

SMILES: N#Cc1cc(-c2ccoc2)c2ccc(OCc3cccc(C4(O)CCOCC4)n3)cc2c1
- bioavailability [1]: 26%
- Cmax [9]: 2000 nM
- IC50 [10]: 0.6 nM

SMILES: Cc1ccc(C2OCCS2)cc1 (stereo not given)
- K [16]: 0.146 min⁻¹

SMILES: Nc1ccn([C@H]2C=C[C@@H](CO)O2)c(=O)n1
- half-life [5]: 0.2 h

SMILES: COC(=O)N[C@H](C(=O)N1CCC[C@H]1c1ncc(-c2ccc(-c3cc4cc(-c5cnc([C@@H]6CCCN6C(=O)[C@@H](NC(=O)OC)C(C)C)[nH]5)ccc4o3)cc2)[nH]1)C(C)C
- EC50 [14]: 27 nM

SMILES: CC[C@@H]1C(=O)N(C(=O)NCc2ccccc2)[C@H]1Oc1ccc(C(=O)O)cc1
- K [12]: 2 10^3/M/s
- half-life [13]: > 80 h
